These results are taken from paper PMC5614969, “High-Affinity Functional Fluorescent Ligands for Human β-Adrenoceptors” (Scientific Reports, 2017).

Series [1] concerns the target T1, β2AR (Homo sapiens, UniProt P07550). Kind of series: cAMP FRET sensor (TEpacVV) agonist assay in HEK 293 cells. Format: cell-based. Conditions: HEK 293 expressing 3′,5′-cAMP FRET sensor, 30 min incubation, room temperature; for EC50: read-out: EC50 (mean ± SD). The protocol: Upon cAMP binding, the sensor undergoes a conformational change resulting in a decrease of the FRET efficiency between two fluorescent proteins: mTurquoise - a version of cyan fluorescent protein (CFP) as the donor, and yellow fluorescent protein (YFP) as the acceptor (Fig. 3a).
The intracellular cyclic adenosine monophosphate (cAMP) levels were determined with HEK 293 cells expressing a 3′,5′-cAMP FRET sensor. The cells were a generous gift from Ruud Hovius from École poly-technique fédérale de Lausanne (EPFL). The cAMP production induces a conformational switch in ^TEpac^VV and causes a decrease in FRET efficiency, i.e. a decreased energy transfer between the two fluorescent proteins (donor mTurquoise and acceptor YFP)[32].
(§1) The culture was maintained by subculturing the cells every 4 to 5 days using the standard trypsinization procedure. Before measurements, cells were trypsinated and transferred in a 96-well glass bottom plate (MatTek Corporation; Cat. No. P96GC-1.5–5-F) to contain 10,000–30,000 cells per well in 200 µL of DMEM media. After 24 h incubation in 5% CO2 at 37 °C, the cells were washed with HBSS pH 7.2 (200 µL), and the wells were filled with 200 µL HBSS. The DMSO stock solutions of the fluorescent probes were diluted 5,000 times in HBSS and used in experiments. […] The fluorescent ligand solutions of different concentrations in HBSS were premixed with the isoprenaline solution. 50 µL of a final solution was added to each well and the measurement was started upon addition and continued for 1 h in 10 min intervals between the readouts (inclusive).
(§2) The ligands were added using an automated pipette to initiate the sensor response. FRET readout from the cAMP sensor was performed on a multiwell plate reader Spark 20 M (Tecan) at room temperature (25 °C). Fluorescence readout amplitudes were calculated from time series for different ligand concentrations, following background subtraction (media only). […] Data were derived from 3 independent experiments and each independent experiment was performed in triplicate.
(§3) Sensor response R(CFP/FRET) was calculated using (1):1 R(CFP/FRET)=(FimTurquoise−FbkgmTurquoise)/(FiFRET−FbkgFRET) where F i ^mTurquoise – mTurquoise fluorescence intensity in the wells with cells; F bkg ^mTurquoise - mTurquoise fluorescence intensity in the control wells without cells; F i ^FRET – FRET signal intensity in the wells with cells; F bkg ^FRET – FRET signal intensity in the control wells without cells. For every result, R(CFP/FRET) ratio was normalized to the R(CFP/FRET) response of DMSO sample.

Series [2] in a line: Fluorescence increase upon addition of SDS to probe solutions. The format is physicochemical. To be noted: addition of 0.1% SDS to ligand in PBS pH 7.4 with 1 mg/ml BSA; mean ± SD, n=3. The protocol:
Fluorescence spectra of 1 µM solution of fluorescent dyes and ligands in PBS pH 7.4, PBS pH 7.4 + 1 mg/ml BSA (Sigma) and with or without 0.1% SDS (Acros Organics) were recorded on a multiwell plate reader Spark 20 M (Tecan) in half-area black 96-well plates (Greiner Bio-One, cat. 675076) at room temperature (25 °C) after 2 h incubation. Fluorescence emission was recorded from 600 nm to 800 nm with excitation at 580 nm. The emission bandwidth for all measurements was set to 5 nm. The spectra were averaged from 3 individual experiments. Ratios F(BSA+SDS)/F(BSA) of fluorescence signals at 635 nm for 610CP, 645 nm for BODIPY 630/650-X and 655 nm for KK114 conjugates were calculated. The obtained results are summarized (Table 1 and Supplementary Fig. 7).

Series [3] has as its target T2, β2AR-YFP fusion protein (Homo sapiens, UniProt P07550).
T2 construct: host or cells: U2OS
The series can be described thus: Confocal imaging of living U2OS cells expressing β2AR-YFP (staining, internalization, competitive displacement, no-wash). The format is cell-based. Conditions: for Staining performance / Receptor internalization: U2OS cells expressing β2AR-YFP; for Staining performance: 610CP ligands at 1.9 µM (19) and 2.5 µM (16). The protocol: U2OS cells (ATCC) were cultured in high-glucose DMEM (Dulbecco’s Modified Eagle medium, Thermo Fisher Scientific) supplemented with GlutaMAX-1 (Thermo Fisher Scientific) and 10% fetal bovine serum (FBS) (Thermo Fisher Scientific) in a humidified 5% CO2 incubator at 37 °C. CAPAN-1 cells (ATCC) were cultured in McCoy’s 5a Medium Modified supplemented with 10% fetal bovine serum (FBS) (Thermo Fisher Scientific) in a humidified 5% CO2 atmosphere at 37 °C. Cells were split every 3–5 days or at confluence. Cells were seeded in glass bottom 12-well plates (MatTek Corporation). […] We used 200,000 cells per well, 3 µg plasmid DNA and 3 µl of Lipofectamine 2000.
We performed imaging 48–72 h after transfection. Staining of the transfected cell was performed in Hanks’ balanced salt solution (HBSS, Lonza) without Phenol Red for 30–40 min at room temperature (to minimize internalization). Samples were washed two times with HBSS, and cells were imaged in DMEM (Thermo Fisher Scientific) supplemented with GlutaMAX-1 (Thermo Fisher Scientific) and 10% fetal bovine serum (FBS). For all staining experiments with cells, stock solutions of dyes in DMSO were used, and final DMSO content was < 0.5%. Imaging was performed on Leica SP8 (Leica Microsystems) or Abberior STED (Abberior Instruments GmbH) microscopes.
Competitive displacement experiment was performed in living U2OS cells expressing β2AR-YFP fusion protein.
Confocal imaging was performed on a Leica SP8 (Leica Microsystems, Mannheim, Germany) inverted confocal microscope equipped with an HC PL APO CS2 63x/1.40 Oil objective. Images were acquired using a 700 Hz bidirectional scanner, pixel size of 70 nm × 70 nm, pinhole of 95.6 µm diameter(1 AU) and frame averaging of 2.

For another series, the system named is β1- and β2-adrenoceptors. The arrangement: method as in PMID 19875286. To be noted: racemic BI-167107; cited from earlier work.
Series [4] addresses T1, β2AR. The series can be described thus: Staining and competitive binding in CAPAN-1 cells at endogenous β2AR expression. The format is cell-based. To be noted: 100 nM probe (5 nM ab118171) with 10 µM BI-167107 or carazolol. The protocol:
To study the selectivity of β2AR staining at the endogenous expression levels, which are much lower compared to those in transiently β2AR expressing U2OS cells, we tested the performance of BI-167107 probes in pancreatic CAPAN-1 cells (Fig. 7c–f). […] Low density of β2AR in the plasma membrane of CAPAN-1 cells allowed us to measure of the lateral resolution in the STED images. When the cells were incubated with 100 nM BI-PEG-KK114 (18) ligand, we observed two-fold improvement in the resolution resulting in apparent structures of ~100 nm (Fig. 7d; Supplementary Table 4).
For staining of CAPAN-1 cells, fluorescent probes or mixtures of a probe and a competitor were incubated in McCoy’s 5a Medium Modified supplemented with 10% fetal bovine serum (FBS) for 30–40 min at room temperature. Afterwards, the samples were washed two times with HBSS, and cells were imaged in DMEM (Thermo Fisher Scientific) supplemented with GlutaMAX-1 (Thermo Fisher Scientific) and 10% fetal bovine serum (FBS). Imaging performed on Leica SP8 (Leica Microsystems) or Abberior STED (Abberior Instruments GmbH) microscopes.

Series [5] is described as follows: pH dependence of ligand fluorescence. The format is physicochemical. The protocol:
pH dependence of βAR ligands fluorescence were recorded on a multiwell plate reader Spark 20 M (Tecan) in 96-well glass bottom plates (MatTek Corporation; Cat. No. PBK96G-1.5-5-F) in PBS solutions (pH 4.7–8.0) at room temperature (25 °C). The 100x stock solutions of ligands were prepared in DMSO.

The target of series [6] is T1, β2AR. Kind of series: cAMP FRET sensor assay, competitive displacement of isoprenaline by antagonists in HEK293 cells. The format is cell-based. The protocol:
as §1, with “experiments. In the antagonist inhibition experiment, we used β1 and β2 adrenoceptor agonist isoprenaline (abcr GmbH) as a positive control causing cAMP elevation.” for “experiments.”
as §2, §3
K i ^app were calculated using the Cheng-Prusoff equation (2):2 Kiapp=IC50/[A]/EC50+1 where [A] – concentration of the isoprenaline; IC50 – fitted half maximal inhibitory concentration of labeled antagonist; EC50 – fitted half maximal response concentration of isoprenaline.

In series [7] the target is T2, β2AR-YFP fusion protein. Kind of series: Confocal imaging of living U2OS cells expressing β2AR-YFP (staining, internalization, competitive displacement, no-wash). The format is cell-based. Conditions: 90 min, 100 nM carazolol-KK114 (24), 5 nM ab118171, no washing.
[8] abbreviates: U2OS β2AR-YFP, 40 min, room temperature, washed.

Several values for one entry are separate records, joined by “and”; a condition that tells them apart may be missing. Identical values can stand only once. Entries after “also recorded” stand apart in the source; their conditions may differ.

T1 sequence (P07550 whole entry): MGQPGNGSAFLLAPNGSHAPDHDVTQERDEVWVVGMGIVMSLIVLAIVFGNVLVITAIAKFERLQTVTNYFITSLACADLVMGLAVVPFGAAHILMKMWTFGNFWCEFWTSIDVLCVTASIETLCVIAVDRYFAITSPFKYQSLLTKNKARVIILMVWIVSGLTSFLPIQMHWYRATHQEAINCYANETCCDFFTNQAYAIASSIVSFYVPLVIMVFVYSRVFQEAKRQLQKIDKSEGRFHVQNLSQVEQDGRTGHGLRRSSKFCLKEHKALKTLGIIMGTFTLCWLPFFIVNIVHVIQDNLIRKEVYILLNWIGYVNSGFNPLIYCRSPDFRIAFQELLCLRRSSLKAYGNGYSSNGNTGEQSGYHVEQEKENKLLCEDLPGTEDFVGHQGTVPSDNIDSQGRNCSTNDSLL
T2 sequence (P07550 whole entry, the tested form may be a part): as the sequence (P07550 whole entry) above

Usually EC50 stands for the concentration at which the effect is half-maximal. Consider `Cc1c(CCC(=O)NCCOCCOCCNC(=O)c2ccc(C(=O)[O-])c(C3=C4C=CC(=[N+](C)C)C=C4C(C)(C)c4cc(N(C)C)ccc43)c2)cccc1CC(C)(C)NCC(O)c1ccc(O)c2c1OCC(=O)N2` (stereo not drawn) [BI-PEG-610CP (19)], for which, on β2AR [1], the “EC50 (mean ± SD, nM)” value is recorded as “low nanomolar”; the half-maximal effective concentration (EC50) was 0.6 nM and 0.62 nM. Further, the “Fluorescence increase (F BSA+SDS / F BSA)” value in series [2] was determined as 1.2±0.3. Also, the Staining performance entry on β2AR-YFP fusion protein [3] is recorded as “None”.

As to `Cc1ccccc1CC(C)(C)NCC(O)c1ccc(O)c2c1OCC(=O)N2` (stereo not drawn) [BI-167107], in the series on β1- and β2-adrenoceptors, the “agonist classification at β-adrenoceptors” value is recorded as “full agonist”.

As a reminder, the IC50 is the concentration needed to halve the response being measured. For `CC(C)(CCNC(=O)CCOCCOCCNC(=O)COc1ccc(/C=C/C2=[N+]3C(=Cc4ccc(-c5cccs5)n4[B-]3(F)F)C=C2)cc1)NC[C@H](O)COc1cccc2[nH]c3ccccc3c12` [ab118171, reference compound], the “Fluorescence increase (F BSA+SDS / F BSA)” value in series [2] turned out to be 8.2±3.9. For the same compound, the “competitive binding with excess unlabeled ligand” value at β2AR [4] was “not possible to achieve full displacement”. Moreover, at β2AR-YFP fusion protein [3], the Receptor internalization result is listed as “Weak” and the Staining performance entry is recorded as “Strong”. In addition, on β2AR-YFP fusion protein [3] (U2OS β2AR-YFP, 5 nM, 40 min, room temperature, washed), the “confocal staining at 5 nM” value was “specific membrane localized fluorescence”. For the same compound, at β2AR-YFP fusion protein [3] (setting [8]), the “confocal staining at 100 nM” value is given as “non-specific dotted background” and the “confocal staining at 250 nM” value is on record as “non-specific dotted background”. In series [5] (pH 7.0 compared to pH 4.7), the fluorescence reduction entry was “almost two-fold”. Moreover, the half-maximal inhibitory concentration (IC50) on β2AR [6] (displacement of 17 nM isoprenaline, readout immediately after addition of ligands (0 min), read-out: IC50 (mean ± SD)) is 74.7 ± 36.3 nM. Further, the Ki at β2AR [6] (read-out: Ki app (mean ± SD)) is 4.8 ± 3.6 nM. For the same compound, on β2AR-YFP fusion protein [7], the no-wash imaging staining result is “strong off-target staining”.

As to `Cc1c(CCC(=O)NCCOCCOCCNC(=O)CCCCCNC(=O)COc2ccc(/C=C/C3=[N+]4C(=Cc5ccc(-c6cccs6)n5[B-]4(F)F)C=C3)cc2)cccc1CC(C)(C)NCC(O)c1ccc(O)c2c1OCC(=O)N2` (stereo not drawn) [BI-PEG-BDY630 (17)], the EC50 at β2AR [1] is 0.2 nM and 0.18 nM. In series [2], the “Fluorescence increase (F BSA+SDS / F BSA)” value turned out to be 10.5±1.7. The “competitive binding with excess unlabeled ligand” value on β2AR [4] was “strong off-target staining”. In addition, at β2AR-YFP fusion protein [3], the Receptor internalization entry is “Yes” and the Staining performance entry was “Strong”. The Competitive displacement entry at β2AR-YFP fusion protein [3] (U2OS β2AR-YFP, 100 nM probe (5 nM ab118171) with 10 µM unlabeled BI-167107 or carazolol, 30 min) was “Low background fluorescence”. In addition, at β2AR-YFP fusion protein [3] (setting [8]), the “confocal staining at 100 nM” value is given as “labelled the cells efficiently” and the “confocal staining at 250 nM” value is listed as “unspecific fluorescence”. Besides, in series [5] (at pH 4.7 and 8.0 versus pH 6.0–7.0), the fluorescence decrease result is recorded as “about 40%”.

With `Cc1c(CCC(=O)NCCCCNC(=O)c2ccc(C(=O)[O-])c(C3=C4C=CC(=[N+](C)C)C=C4C(C)(C)c4cc(N(C)C)ccc43)c2)cccc1CC(C)(C)NCC(O)c1ccc(O)c2c1OCC(=O)N2` (stereo not drawn) [BI-4C-610CP (16)], on β2AR [1], the “EC50 (mean ± SD, nM)” value is “low nanomolar” and the EC50 amounted to 7.3 ± 1.4 nM. Moreover, the “Fluorescence increase (F BSA+SDS / F BSA)” value in series [2] is 1.5±0.4. Besides, at β2AR-YFP fusion protein [3], the Receptor internalization result was “Yes” and the Staining performance entry is “satisfactory images; also recorded: Medium”.
